≈ marks a conversion by molar mass, not a printed value.
Assays:
Format in all cases: functional
P388 = experiment: Cytotoxicity against mouse P388 cells after 48 hrs by cell counting; conditions: P388, 48 h, read-out: ED50 (the source's name)
BXPC-3 = experiment: Cytotoxicity against human BxPC3 cells after 48 hrs by SRB assay; conditions: BXPC-3, 48 h
MCF7 = experiment: Cytotoxicity against human MCF7 cells after 48 hrs by SRB assay; conditions: MCF7, 48 h
SF-268 = experiment: Cytotoxicity against human SF268 cells after 48 hrs by SRB assay; conditions: SF-268, 48 h
NCI-H460 = experiment: Cytotoxicity against human NCI-H460 cells after 48 hrs by SRB assay; conditions: NCI-H460, 48 h
KM-20L2 = experiment: Cytotoxicity against human KM20L2 cells after 48 hrs by SRB assay; conditions: KM-20L2, 48 h
DU-145 = experiment: Cytotoxicity against human DU145 cells after 48 hrs by SRB assay; conditions: DU-145, 48 h

| SMILES | EC50 (P388) | GI50 (BXPC-3) | GI50 (MCF7) | GI50 (SF-268) | GI50 (NCI-H460) | GI50 (KM-20L2) | GI50 (DU-145) |
| --- | --- | --- | --- | --- | --- | --- | --- |
| O=C1N[C@H]2[C@H](O)[C@@H](O)[C@@H](O)[C@H](O)[C@@H]2c2cc3c(c(O)c21)OCO3 (relative stereo) | 0.69 µg/mL (≈ 2.12 µM) | 1.7 µg/mL (≈ 5.23 µM) | 2.2 µg/mL (≈ 6.76 µM) | 0.74 µg/mL (≈ 2.28 µM) | 0.85 µg/mL (≈ 2.61 µM) | 2.3 µg/mL (≈ 7.07 µM) | 1.3 µg/mL (≈ 4 µM) |
| O=C1N[C@@H]2C(=C[C@H](O)[C@@H](O)[C@H]2O)c2cc3c(c(O)c21)OCO3 [NARCICLASINE] | 0.018 µg/mL (≈ 0.0586 µM) | – | – | – | – | – | – |
| O=C1N[C@H]2[C@H](O)[C@H](O)[C@@H](O)[C@H](O)[C@@H]2c2cc3c(c(O)c21)OCO3 [PANCRATISTATIN] | 0.017 µg/mL (≈ 0.0523 µM) | 0.02 µg/mL (≈ 0.0615 µM) | 0.023 µg/mL (≈ 0.0707 µM) | 0.014 µg/mL (≈ 0.043 µM) | 0.032 µg/mL (≈ 0.0984 µM) | 0.025 µg/mL (≈ 0.0769 µM) | 0.015 µg/mL (≈ 0.0461 µM) |

Source: ChEMBL document CHEMBL2034872, “Antineoplastic agents. 587. Isolation and structure of 3-epipancratistatin from Narcissus cv. Ice Follies” (2012)
